Earlier results, collected in patent US12336999B2, “Modified release formulations of 2-[3-[4-amino-3-(2-fluoro-4-phenoxy-phenyl) pyrazolo[3,4-d] pyrimidin-1-yl]piperidine-1-carbonyl]-4-methyl-4-[4-(oxetan-3-yl) piperazin-1-yl]pent-2-enenitrile” (Principia Biopharma Inc., priority 2016, dated 2025).
Where two headings read alike, the source gives them in different places.

C=CC(=O)N1CCC[C@@H](n2nc(-c3ccc(Oc4ccccc4)cc3)c3c(N)ncnc32)C1 [ibrutinib]
bioavailability as determined by AUC (administered intraduodenally): 100% | bioavailability as determined by AUC (direct oral administration): 21%
